Values joined by “and” are separate entries in the source; they are usually repeats but may differ in a detail not shown here. Identical values can stand only once. Where a SMILES comes first, the peptide text is derived from it. The star is where a group is joined. Cbz = O=C(OCc1ccccc1)*; CH2F = FC*

The test concerns VSMCs. Briefly: Monocyte/VSMC co-culture apoptosis assay (Hoechst 33342/propidium iodide, apoptotic index). It is filed as cell-based, human. The conditions noted are these: for inhibition of M-CSF-triggered, monocyte-induced apoptosis of VSMCs: eptifibatide 5 μg/ml, tirofiban 0.35 μg/ml, compared with abciximab; for VSMC apoptosis: M-CSF 100 ng/mL. The procedure: VSMCs (passage 3 to 7) were obtained from Clonetics and from heart donors. VSMC identity was confirmed by α-smooth muscle actin staining. VSMCs initially were grown in growth medium (SmGM2; Clonetics) with 5% serum, and at 60% to 70% confluence, the media was changed to a serum-free medium (50:50 of DMEM/F12 media with 5 mL of ITS, PSA, L-glutamine, and nonessential amino acids per 500 mL of solution). After 72-hour incubation in the serum-free medium, VSMCs were co-cultured with monocytes. Co-culture experiments were also conducted with the use of SmGM2 media (5% serum) throughout the experiment.
Leukocytes were isolated from buffy coat preparations (American Red Cross) by means of the Ficoll-Paque gradient method. Monocytes were isolated by means of an indirect magnetic labeling system and a monocyte isolation kit. The purity of monocytes obtained was […], which was confirmed by flow cytometry with anti-CD-14-FITC and anti-CD45-PE antibodies.
Freshly isolated monocytes were added 3:1 to VSMCs. Conditions included wells with VSMCs alone (with or without M-CSF) and VSMCs co-cultured with monocytes (with and without M-CSF). Experiments were conducted with either no serum or 5% serum in media. Experiments were also repeated by preincubating VSMCs with a pan-caspase inhibitor (1 hour at 37° C.) (ZVAD-fmk [10 μmol/L/mL]; sequence Z-Val-Ala-Asp [Ome]-CH2 F), before addition of the MMs and M-CSF. Media and ZVAD-fmk were replenished every 24 hours. Specific controls were used for VSMCs with ZVAD-fmk.
Abciximab, aggrastat, and eptifibatide, 3 established parenteral glycoprotein (GP) IIb/IIIa blockers, were added to MM and VSMC co-cultures before exposure to M-CSF. Controls were used for VSMCs with abciximab, aggrastat, and eptifibatide separately, with or without M-CSF. All experiments were done in triplicate.
Experiments were done with the use of recombinant human IL-1 β (100 to 1000 pg/mL) in place of M-CSF. Anti-human M-CSF neutralizing antibody (1 μg/mL) was added along with IL-1 β, and the VSMCs plus monocytes were co-cultured for 72 hours. Isotype control, IgG2a (clone 20102.1), was used for VSMCs cultured with monocytes and IL-1 β.
After 72-hour incubation, MM and VSMC co-cultures were stained live with the Vybrant Apoptosis kit (Molecular Probes), consisting of 2 nuclear stains, Hoechst 33342 (5 mg/mL) and propidium iodide (1 mg/mL). After incubation for 20 minutes at 37° C., coverslips were washed and the cell death index was estimated as previously described (Webster et al, J. Clin. Invest. 104:239-252 ([…])) (apoptotic index=dead cells/[live cells+dead cells]×100).

As for `COC(=O)C[C@H](NC(=O)[C@H](C)NC(=O)[C@@H](NC(=O)OCc1ccccc1)C(C)C)C(=O)CF` [ZVAD-fmk, Z-Val-Ala-Asp [Ome]-CH2 F, reference compound] (Cbz-Val-Ala-Asp(OMe)-CH2F), the “apoptosis induced by co-culture with activated monocytes” value (VSMCs preincubated with ZVAD-fmk (10 μmol/L/mL)) is given as “completely abrogated”. In addition, the “apoptotic index of VSMCs” value (VSMCs preincubated with ZVAD-fmk (10 μmol/L/mL), co-cultured with monocytes and M-CSF, 72 h) was determined as 15.4±0.4%.
Consider `N=C(N)NCCCC[C@@H]1NC(=O)CCSSC[C@@H](C(N)=O)NC(=O)[C@@H]2CCCN2C(=O)[C@H](Cc2c[nH]c3ccccc23)NC(=O)[C@H](CC(=O)O)NC(=O)CNC1=O` [eptifibatide, reference compound] (HELM PEPTIDE1{[O=C(CCS[*:3])[*:2]].[N=C(N)NCCCC[C@H](N[*:1])C(=O)[*:2]].G.D.W.P.C.[am]}$PEPTIDE1,PEPTIDE1,1:R3-7:R3$$$V2.0), for which the “inhibition of M-CSF-triggered, monocyte-induced apoptosis of VSMCs” value is “unable to confer similar protection”. For the setting “eptifibatide 5 μg/mL, VSMCs with monocytes and M-CSF”, this molecule gave a cell death index of 51.3±2.2%.
As for `CCCCS(=O)(=O)N[C@@H](Cc1ccc(OCCCCC2CCNCC2)cc1)C(=O)O` [tirofiban, reference compound], the “inhibition of M-CSF-triggered, monocyte-induced apoptosis of VSMCs” value was “unable to confer similar protection”. Where the note is “tirofiban 0.35 μg/mL, VSMCs with monocytes and M-CSF”, this molecule had a cell death index of 65.0±3.4%.
In the case of “IL-1: recombinant human IL-1 β, monocyte-activating cytokine (R&D Systems)”, for the setting “VSMCs with monocytes and IL-1 100 pg/mL in place of M-CSF”, the “apoptotic index of VSMCs” value is given as 10.5±2.4%. Further, the “monocyte-induced VSMC death” value (VSMCs with monocytes and IL-1 500 pg/mL) is recorded as 59.5±3.5%; the “monocyte-induced VSMC death” value (VSMCs with monocytes and IL-1 1000 pg/mL (1 ng/mL)) was 59±3.8%.

B1: abciximab: chimeric monovalent and humanized monoclonal antibody Fab fragment; GP IIb/IIIa blocker that binds Mac-1 (antibody, chains of the INN, looked up, V domains shown)
VH: EVQLQQSGTVLARPGASVKMSCEASGYTFTNYWMHWVKQRPGQGLEWIGAIYPGNSDTSYIQKFKGKAKLTAVTSTTSVYMELSSLTNEDSAVYYCTLYDGYYVFAYWGQGTLVTVSA
VL: EIVLTQSPVTLSVTPGDSVSLSCRASRDISNNLHWFQQTSHESPRLLIKYASQSMSGIPSRFSGSGSGTDFTLSINSVETEDFGMYFCQQTNSWPYTFGGGTKLEIK
modifications: Fab
In the case of B1, the “apoptotic index of VSMCs” value by setting is: (abciximab 7 μg/mL, VSMCs with monocytes and M-CSF) 19.1±2.3% and 19.1±2.2%; (abciximab 7 μg/mL, VSMCs with monocytes and M-CSF, listed as Abciximab) 19.1±2.2%.

B2: M-CSF: recombinant macrophage colony-stimulating factor (R&D Systems), hematopoietic growth factor (protein, UniProt P09603 33-554, looked up)
Macrophage colony-stimulating …: EEVSEYCSHMIGSGHLQSLQRLIDSQMETSCQITFEFVDQEQLKDPVCYLKKAFLLVQDIMEDTMRFRDNTPNAIAIVQLQELSLRLKSCFTKDYEEHDKACVRTFYETPLQLLEKVKNVFNETKNLLDKDWNIFSKNCNNSFAECSSQDVVTKPDCNCLYPKAIPSSDPASVSPHQPLAPSMAPVAGLTWEDSEGTEGSSLLPGEQPLHTVDPGSAKQRPPRSTCQSFEPPETPVVKDSTIGGSPQPRPSVGAFNPGMEDILDSAMGTNWVPEEASGEASEIPVPQGTELSPSRPGGGSMQTEPARPSNFLSASSPLPASAKGQQPADVTGTALPRVGPVRPTGQDWNHTPQKTDHPSALLRDPPEPGSPRISSLRPQGLSNPSTLSAQPQLSRSHSSGSVLPLGELEGRRSTRDRRSPAEPEGGPASEGAARPLPRFNSVPLTDTGHERQSEGSFSPQLQESVFHLLVPSVILVLLAVGGLLFYRWRRRSHQEPQRADSPLEQPEGSPLTQDDRQVELPV
For B2, the VSMC apoptosis reads like this: (VSMCs in direct contact with activated monocytes) 66.3±1.8%; (monocytes separated from VSMCs by porous insert (3-μm pores)) 21.0±1.0%. Moreover, the “apoptotic index of VSMCs” value (VSMCs cultured with M-CSF (100 ng/mL) but without monocytes) was determined as 15.7±1.5%; the “apoptotic index of VSMCs” value (VSMCs cultured with both M-CSF (100 ng/mL) and monocytes, 4 sets of experiments) is listed as 58.8±3.3%; the “apoptotic index of VSMCs” value (VSMCs with M-CSF-activated monocytes, no inhibitor (comparison group of later experiments; M-CSF concentration not given)) was 60±2.1% and 60.0±3.0% and 51.9±1.6% and 51.9±1.8%.

The record behind these values is patent publication US20030138857A1, “Method of inhibiting atherosclerotic plaque destabilization” (priority 2002, published 2003).
